Results reported in US20260174797A1, “MAGNESIUM AND TRACE ELEMENT OXIDE PREMIX FOR ANIMAL NUTRITIONAL SUPPLEMENTATION, AND MANUFACTURING METHOD” (TIMAB MAGNESIUM, priority 2022, published 2026).
Marks after values point to notes of the source that are not given here.

Legend:
[1] = In vivo piglet test: growth performance (weight gain, feed consumption) D0 to D42 post-weaning; set-up: species or system piglets (Danbred×Duroc); settings: for Daily weight gain: Overall period D0 to D42
Method: The effect of the premix of the invention on the performance and health of piglets in the post-weaning pre-starter stage (0-14 days post-weaning) was evaluated and compared to a standard oxide.
The use of the product of the invention ZnO—MgO was compared with standard zinc oxide at nutritional dose as well as at pharmacological dose in the contents indicated in Table 3.
Piglet weight was measured from D0 to D42 post-weaning in order to record daily weight gain and total weight at the end of the test. Feed consumption of each animal was also recorded each day of the test and recorded as an average to assess the feed conversion ratio (FCR). The FCR corresponds to the conversion index CI. It is equal to the average daily consumption reported to the average daily weight gain. The mean values+/−the standard deviation are presented per treatment.

[2] = in vivo
From the text: Each piglet is tagged, weighed and allocated in groups of 8 piglets per pen.
Analyses of the faeces after 14 days of use of the different treatments allowed to assess the amount of zinc not used by the animal and thus released into the soil, contributing to pollution.

Caco2 cells = settings: Caco-2
[3] = Control Negative: ZnO 150 ppm additive (120 ppm zinc)
[4] = Control Positive: ZnO 3261 ppm additive (2620 ppm zinc)
[5] = Pre-starter phase D0 to D14, Control Negative: ZnO 150 ppm additive (120 ppm zinc)
[6] = Pre-starter phase D0 to D14, Control Positive: ZnO 3261 ppm additive (2620 ppm zinc)

Compound	Live weight Day 0 [1, 3] [kg]	Live weight Day 14 [1, 3]	Live weight Day 42 [1, 3]	Live weight Day 0 [1, 4] [kg]	Live weight Day 14 [1, 4]	Live weight Day 42 [1, 4]	Daily weight gain [1, 3]	Daily weight gain [1, 4]	Average daily feed consumption [1, 5] [kg/day]	Average daily weight gain [1, 5]	Feed conversion ratio [1, 5]	Average daily feed consumption [1, 6] [kg/day]	Average daily weight gain [1, 6]	Feed conversion ratio [1, 6]	Average daily weight gain ([1]; Starter phase D15 to D42, Control Negative: ZnO 150 ppm additive (120 ppm zinc))	Average daily weight gain ([1]; Starter phase D15 to D42, Control Positive: ZnO 3261 ppm additive (2620 ppm zinc))	zinc content measured in the feces [2] [ppm]	Total Zn absorbed on cell (Caco2 cells) [mg/L]
[O]=[Zn] [Control, ZnO]	6.75	9.61^b kg	26.15^ab kg	6.74	10.01^ab kg	25.33^b kg	0.463^ab kg/day	0.444^b kg/day	0.380	0.205^b kg/day	1.863^a kg/kg	0.395	0.233^ab kg/day	1.705^b kg/kg	0.611^ab kg/day	0.571^b kg/day	925	–
ZnO—MgO [Premix of the invention MgO—ZnO]	–	–	–	–	–	–	–	–	–	–	–	–	–	–	–	–	–	1.89
